{
  "source": "patent US20100159093A1",
  "about": "“METHOD OF TREATING FOODSTUFF” (priority 2008, published 2010)",
  "key": {"anaerobic microbes": {"test_system": "anaerobic microbes", "test": "Growth of anaerobically cultivated bacteria in raw milk under nitrogen gas", "format": "cell-based", "conditions": "12.0° C., N1 environment (120 ml/min), Example 5, FIG. 5H", "experimental": "With the device shown in FIG. 1, the effect of nitrogen gas on the natural microflora in raw milk (volume approximately 125 ml) was examined by replacing the air (control) in an open vessel (volume approximately 250 ml) at a constant temperature, with a flow-through of 100% nitrogen gas (purity 99.999%, manufacturer AGA) at two different flow-through rates: N1=120 ml/min, N2=40 ml/min. The temperature of the raw milk in the sample bottles was adjusted by means of the thermostat (14) of the water bath to bring the temperature of the milk to 6.0° C., 7.0° C. or 12.0° C. The temperature variation in the vessel was less than ±0.1° C. The effect of nitrogen gas on the growth of the microflora in a raw milk sample at 12.0° C. Two flow-through rates of the nitrogen gas were used in the study: (▴) 40 ml/min and ([…]) 120 ml/min. […] The following bacterial levels were determined in the samples: FIG. 5A: Total bacteria count (p.m.y./ml) FIG. 5B: Total number of psychrotrophs (p.m.y./ml) FIG. 5C: Total number of proteolytic bacteria (p.m.y./ml) FIG. 5D: Total number of lipolytic bacteria (p.m.y./ml) FIG. 5E: Total number of bacteria producing phospholipase (p.m.y./ml). […]"}, "[1]": {"test_system": "natural microflora in raw milk (total bacteria count)", "test": "Growth of the natural microflora (total bacteria count) in raw milk under nitrogen gas", "format": "cell-based", "experimental": "With the device shown in FIG. 1, the effect of nitrogen gas on the natural microflora in raw milk (volume approximately 125 ml) was examined by replacing the air (control) in an open vessel (volume approximately 250 ml) at a constant temperature, with a flow-through of 100% nitrogen gas (purity 99.999%, manufacturer AGA) at two different flow-through rates: N1=120 ml/min, N2=40 ml/min. The apparatus comprises a nitrogen source (1), which is connected by means of a flow channel (2) to two sample bottles (3 and 4). The device also comprises a bottle (5) which contains a reference sample. Filters (6a, 6b, 7a, 7b and 8a, 8b) are connected to the gas flow channels (2), which are made of silicon pipe/hose. The pore size of the filters is 0.2 μm. A flow meter is attached to the flow channels (2), in order to allow the rate at which the gas flows are to be adjusted. The sample bottles are placed in a water bath (10). […] and magnetic mixers (12) are used to mix the contents of the bottles. The water of the water bath (10) is cooled with a cooling coil (11) which is connected to a cooling unit (13), and the entire test apparatus is placed in a cold store, the temperature of which is 5° C. (except the nitrogen bottle). The water temperature of the water bath (10) is adjusted to a desired temperature with the help of an adjustable submersible thermostat (14). The temperature of the raw milk in the sample bottles was adjusted by means of the thermostat (14) of the water bath to bring the temperature of the milk to 6.0° C., 7.0° C. or 12.0° C. The temperature variation in the vessel was less than ±0.1° C. […] The effect of nitrogen gas on the growth of the microflora in a raw milk sample at 6.0° C. Two flow-through rates of the nitrogen gas were used in the study: (▴) 40 ml/min and ([…])120 ml/min. […] The following bacterial levels were determined in the samples: The effect of nitrogen gas on the growth of the microflora in a raw milk sample at 7.0° C. Two flow-through rates of the nitrogen gas were used in the study: (▴) 40 ml/min and ([…])120 ml/min. […] The following bacterial levels were determined in the samples: The effect of nitrogen gas on the growth of the microflora in a raw milk sample at 12.0° C. Two flow-through rates of the nitrogen gas were used in the study: (▴) 40 ml/min and ([…]) 120 ml/min. […] The following bacterial levels were determined in the samples: […]"}, "four Pseudomonas strains": {"test_system": "four Pseudomonas strains", "conditions": "15° C., Eyles et al.; cited from earlier work"}, "[2]": {"conditions": "6.0° C., N2 environment (40 ml/min)"}},
  "data": [
    {"smiles": "N#N", "note": "[nitrogen gas]", "values": [
      {"measurement": "growth of anaerobic microbes", "setting": "anaerobic microbes", "result": "able to delay the growth"},
      {"measurement": "growth of the bacteria", "setting": "[1]; 6.0° C., N1 environment (120 ml/min), measurement period of 11 days", "result": "totally prevents the growth of the bacteria"},
      {"measurement": "growth of the microbes", "setting": "[1]; [2]", "result": "capable of preventing the growth of the microbes for 7 days"},
      {"measurement": "increase of the microbe level during a period of 3 days", "setting": "[1]; [2]", "result": "less than 1 log-unit"},
      {"measurement": "total growth/the growth of the microbes", "setting": "[1]; 7.0° C., N1 environment (120 ml/min), prevents = log increases by less than one unit in 3 days", "result": "still prevents"},
      {"measurement": "growth of the total microbial count", "setting": "[1]; 7.0° C., N2 environment (40 ml/min)", "result": "delays the growth of the total microbial count, although it cannot totally prevent the growth"},
      {"measurement": "growth of the total microbial count", "setting": "[1]; 12.0° C., N1 environment (120 ml/min), Example 4 sample", "result": "still prevents or nearly prevents the growth of the total microbial count"},
      {"measurement": "growth of the total number of the microbes", "setting": "[1]; 12.0° C., N1 environment (120 ml/min), Example 5 sample", "result": "substantially delay the growth of the total number of the microbes"},
      {"measurement": "inhibition of Pseudomonas strains", "setting": "four Pseudomonas strains", "result": "did not establish that pure nitrogen is capable of significantly inhibiting"}
    ]}
  ]
}
